Measured values taken from the supplement of paper PMC10307832.

Columns and labels:
Experiment in all cases: relative viability (nuclei count vs DMSO), 5 days (fraction); higher = more cells survive
NCI-H2023 = system: NCI-H2023
How it was run: (§1)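 Dosing by pin tool came one day after lung cancer cell lines were seeded in 1536-well plates, using either one drug or a fixed anchor-drug dose plus five library-drug doses (not always all listed) in √10 steps. After 5 days, nuclei were counted on 4× images. Relative viability is treated-well nuclei count divided by vehicle-well nuclei count, and values are medians of duplicate plates.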

H3255 = system: H3255
How it was run: as §1

SK-LU-1 = system: SK-LU-1
How it was run: as §1

LXF-289 = system: LXF-289
How it was run: as §1

NCI-H2342 = system: NCI-H2342
How it was run: as §1

EMC-BAC-2 = system: EMC-BAC-2
How it was run: as §1

HOP-62 = system: HOP-62
How it was run: as §1

EPLC-272H = system: EPLC-272H
How it was run: as §1

NCI-H1993 = system: NCI-H1993
How it was run: as §1

NCI-H647 = system: NCI-H647
How it was run: as §1

SW 1573 = system: SW 1573
How it was run: as §1

PC-14 = system: PC-14
How it was run: as §1

NCI-H1650 = system: NCI-H1650
How it was run: as §1

NCI-H727 = system: NCI-H727
How it was run: as §1

NCI-H2126 = system: NCI-H2126
How it was run: as §1

LCLC-97TM1 = system: LCLC-97TM1
How it was run: as §1

NCI-H2347 = system: NCI-H2347
How it was run: as §1

NCI-H2009 = system: NCI-H2009
How it was run: as §1

NCI-H661 = system: NCI-H661
How it was run: as §1

NCI-H2085 = system: NCI-H2085
How it was run: as §1

NCI-H322M = system: NCI-H322M
How it was run: as §1

NCI-H1915 = system: NCI-H1915
How it was run: as §1

## CC1(C)CCC(c2ccc(Cl)cc2)=C(CN2CCN(c3ccc(C(=O)NS(=O)(=O)c4ccc(N[C@H](CCN5CCOCC5)CSc5ccccc5)c(S(=O)(=O)C(F)(F)F)c4)cc3)CC2)C1 [Navitoclax] + O=C(c1cc(Cc2n[nH]c(=O)c3ccccc23)ccc1F)N1CCN(C(=O)C2CC2)CC1 [Olaparib] (partner 8 µM)
NCI-H2023; first compound 0.005 µM
  relative viability: 0.445
NCI-H2023; first compound 0.01581 µM
  relative viability: 0.47
NCI-H2023; first compound 0.05 µM
  relative viability: 0.534
NCI-H2023; first compound 0.1581 µM
  relative viability: 0.442
NCI-H2023; first compound 0.5 µM
  relative viability: 0.496
H3255; first compound 0.005 µM
  relative viability: 0.563
H3255; first compound 0.01581 µM
  relative viability: 0.626
H3255; first compound 0.05 µM
  relative viability: 0.57
H3255; first compound 0.1581 µM
  relative viability: 0.57
H3255; first compound 0.5 µM
  relative viability: 0.506
SK-LU-1; first compound 0.005 µM
  relative viability: 0.613
SK-LU-1; first compound 0.01581 µM
  relative viability: 0.474
SK-LU-1; first compound 0.05 µM
  relative viability: 0.329
SK-LU-1; first compound 0.1581 µM
  relative viability: 0.424
SK-LU-1; first compound 0.5 µM
  relative viability: 0.338
LXF-289; first compound 0.005 µM
  relative viability: 1.01
LXF-289; first compound 0.01581 µM
  relative viability: 1.12
LXF-289; first compound 0.05 µM
  relative viability: 0.88
LXF-289; first compound 0.1581 µM
  relative viability: 0.888
LXF-289; first compound 0.5 µM
  relative viability: 1.08
NCI-H2342; first compound 0.005 µM
  relative viability: 0.421
NCI-H2342; first compound 0.01581 µM
  relative viability: 0.44
NCI-H2342; first compound 0.05 µM
  relative viability: 0.322
NCI-H2342; first compound 0.1581 µM
  relative viability: 0.476
NCI-H2342; first compound 0.5 µM
  relative viability: 0.456
EMC-BAC-2; first compound 0.005 µM
  relative viability: 0.461
EMC-BAC-2; first compound 0.01581 µM
  relative viability: 0.483
EMC-BAC-2; first compound 0.05 µM
  relative viability: 0.456
EMC-BAC-2; first compound 0.1581 µM
  relative viability: 0.434
EMC-BAC-2; first compound 0.5 µM
  relative viability: 0.452
HOP-62; first compound 0.005 µM
  relative viability: 0.211
HOP-62; first compound 0.01581 µM
  relative viability: 0.434
HOP-62; first compound 0.05 µM
  relative viability: 0.507
HOP-62; first compound 0.1581 µM
  relative viability: 0.473
HOP-62; first compound 0.5 µM
  relative viability: 0.432
EPLC-272H; first compound 0.005 µM
  relative viability: 0.877
EPLC-272H; first compound 0.01581 µM
  relative viability: 0.79
EPLC-272H; first compound 0.05 µM
  relative viability: 0.644
EPLC-272H; first compound 0.1581 µM
  relative viability: 0.714
EPLC-272H; first compound 0.5 µM
  relative viability: 1.18
NCI-H1993; first compound 0.005 µM
  relative viability: 1.09
NCI-H1993; first compound 0.01581 µM
  relative viability: 1.32
NCI-H1993; first compound 0.05 µM
  relative viability: 0.936
NCI-H1993; first compound 0.1581 µM
  relative viability: 0.984
NCI-H1993; first compound 0.5 µM
  relative viability: 1.02
NCI-H647; first compound 0.005 µM
  relative viability: 0.47
NCI-H647; first compound 0.01581 µM
  relative viability: 0.605
NCI-H647; first compound 0.05 µM
  relative viability: 0.498
NCI-H647; first compound 0.1581 µM
  relative viability: 0.471
NCI-H647; first compound 0.5 µM
  relative viability: 0.288
SW 1573; first compound 0.005 µM
  relative viability: 0.486
SW 1573; first compound 0.01581 µM
  relative viability: 0.528
SW 1573; first compound 0.05 µM
  relative viability: 0.471
SW 1573; first compound 0.1581 µM
  relative viability: 0.431
SW 1573; first compound 0.5 µM
  relative viability: 0.367
PC-14; first compound 0.005 µM
  relative viability: 0.266
PC-14; first compound 0.01581 µM
  relative viability: 0.28
PC-14; first compound 0.05 µM
  relative viability: 0.283
PC-14; first compound 0.1581 µM
  relative viability: 0.219
PC-14; first compound 0.5 µM
  relative viability: 0.235
NCI-H1650; first compound 0.005 µM
  relative viability: 0.67
NCI-H1650; first compound 0.01581 µM
  relative viability: 0.829
NCI-H1650; first compound 0.05 µM
  relative viability: 0.803
NCI-H1650; first compound 0.1581 µM
  relative viability: 0.784
NCI-H1650; first compound 0.5 µM
  relative viability: 0.649
NCI-H727; first compound 0.005 µM
  relative viability: 0.774
NCI-H727; first compound 0.01581 µM
  relative viability: 0.769
NCI-H727; first compound 0.05 µM
  relative viability: 0.738
NCI-H727; first compound 0.1581 µM
  relative viability: 0.559
NCI-H727; first compound 0.5 µM
  relative viability: 0.721
NCI-H2126; first compound 0.005 µM
  relative viability: 0.912
NCI-H2126; first compound 0.01581 µM
  relative viability: 0.994
NCI-H2126; first compound 0.05 µM
  relative viability: 0.847
NCI-H2126; first compound 0.1581 µM
  relative viability: 0.86
NCI-H2126; first compound 0.5 µM
  relative viability: 0.9
LCLC-97TM1; first compound 0.005 µM
  relative viability: 0.34
LCLC-97TM1; first compound 0.01581 µM
  relative viability: 0.599
LCLC-97TM1; first compound 0.05 µM
  relative viability: 0.243
LCLC-97TM1; first compound 0.1581 µM
  relative viability: 0.409
LCLC-97TM1; first compound 0.5 µM
  relative viability: 0.445
NCI-H2347; first compound 0.005 µM
  relative viability: 0.558
NCI-H2347; first compound 0.01581 µM
  relative viability: 0.585
NCI-H2347; first compound 0.05 µM
  relative viability: 0.537
NCI-H2347; first compound 0.1581 µM
  relative viability: 0.61
NCI-H2347; first compound 0.5 µM
  relative viability: 0.51
NCI-H2009; first compound 0.005 µM
  relative viability: 0.698
NCI-H2009; first compound 0.01581 µM
  relative viability: 0.692
NCI-H2009; first compound 0.05 µM
  relative viability: 0.691
NCI-H2009; first compound 0.1581 µM
  relative viability: 0.6
NCI-H2009; first compound 0.5 µM
  relative viability: 0.689
NCI-H661; first compound 0.005 µM
  relative viability: 0.751
NCI-H661; first compound 0.01581 µM
  relative viability: 0.797
NCI-H661; first compound 0.05 µM
  relative viability: 0.712
NCI-H661; first compound 0.1581 µM
  relative viability: 0.695
NCI-H661; first compound 0.5 µM
  relative viability: 0.751
NCI-H2085; first compound 0.005 µM
  relative viability: 0.74
NCI-H2085; first compound 0.01581 µM
  relative viability: 0.864
NCI-H2085; first compound 0.05 µM
  relative viability: 0.596
NCI-H2085; first compound 0.1581 µM
  relative viability: 0.746
NCI-H2085; first compound 0.5 µM
  relative viability: 0.815
NCI-H322M; first compound 0.005 µM
  relative viability: 0.8
NCI-H322M; first compound 0.01581 µM
  relative viability: 0.984
NCI-H322M; first compound 0.05 µM
  relative viability: 0.754
NCI-H322M; first compound 0.1581 µM
  relative viability: 0.725
NCI-H322M; first compound 0.5 µM
  relative viability: 0.934
NCI-H1915; first compound 0.005 µM
  relative viability: 0.253
NCI-H1915; first compound 0.01581 µM
  relative viability: 0.247
NCI-H1915; first compound 0.05 µM
  relative viability: 0.215
NCI-H1915; first compound 0.1581 µM
  relative viability: 0.261
NCI-H1915; first compound 0.5 µM
  relative viability: 0.254
